Values of other authors, collected in patent publication US9138417B2, “Controlled release particles and production method thereof” (priority 2011, dated 2015).

| SMILES | water solubility |
| --- | --- |
| CCCC1COC(Cn2cncn2)(c2ccc(Cl)cc2Cl)O1 (stereo not drawn) [Propiconazole, 1-[2-(2,4-dichlorophenyl)-4-n-propyl-1,3-dioxolane-2-ylmethyl]-1H-1,2,4-triazole] | 110 ppm |
| C=C(C)C(=O)O [Methacrylic acid] | 8.9 mass% |
| CCCCNC(=O)OCC#CI [IPBC, 3-iodo-2-propynylbutylcarbamate] | 150 ppm |
